# Results published in publication PMC12102759 (Protein Science : A Publication of the Protein Society, 2025).
# Where two headings read alike, the source gives them in different places.
# Tested on: G3BP1 NFT2
# Type: binding, human
# Settings: library DMS-CoV, bait G3BP1 NFT2, prey N, listed as aa = residue placed at this position, column sums to 1
sequence,measurement,setting,value
RNAPRITFGGPSDSTG N2Q (RQAPRITFGGPSDSTG),"DMS PSSM value, N (position 2)",peptide RNAPRITFGGPSDSTG,0
APRITFGGPSDSTGSN A1R (RPRITFGGPSDSTGSN),"DMS PSSM value, A (position 1)",peptide APRITFGGPSDSTGSN,0
RNAPRITFGGPSDSTG S12P (RNAPRITFGGPPDSTG),"DMS PSSM value, S (position 12)",peptide RNAPRITFGGPSDSTG,0
RNAPRITFGGPSDSTG F8N (RNAPRITNGGPSDSTG),"DMS PSSM value, F (position 8)",peptide RNAPRITFGGPSDSTG,0
RNAPRITFGGPSDSTG P4D (RNADRITFGGPSDSTG),"DMS PSSM value, P (position 4)",peptide RNAPRITFGGPSDSTG,0
RNAPRITFGGPSDSTG T15R (RNAPRITFGGPSDSRG),"DMS PSSM value, T (position 15)",peptide RNAPRITFGGPSDSTG,0
RNAPRITFGGPSDSTG F8V (RNAPRITVGGPSDSTG),"DMS PSSM value, F (position 8)",peptide RNAPRITFGGPSDSTG,0
APRITFGGPSDSTGSN A1L (LPRITFGGPSDSTGSN),"DMS PSSM value, A (position 1)",peptide APRITFGGPSDSTGSN,0.0004523
RNAPRITFGGPSDSTG F8K (RNAPRITKGGPSDSTG),"DMS PSSM value, F (position 8)",peptide RNAPRITFGGPSDSTG,0
APRITFGGPSDSTGSN F6W (APRITWGGPSDSTGSN),"DMS PSSM value, F (position 6)",peptide APRITFGGPSDSTGSN,0
RNAPRITFGGPSDSTG G9W (RNAPRITFWGPSDSTG),"DMS PSSM value, G (position 9)",peptide RNAPRITFGGPSDSTG,0
RNAPRITFGGPSDSTG R5M (RNAPMITFGGPSDSTG),"DMS PSSM value, R (position 5)",peptide RNAPRITFGGPSDSTG,0.2004
APRITFGGPSDSTGSN P9V (APRITFGGVSDSTGSN),"DMS PSSM value, P (position 9)",peptide APRITFGGPSDSTGSN,0.001999
APRITFGGPSDSTGSN A1W (WPRITFGGPSDSTGSN),"DMS PSSM value, A (position 1)",peptide APRITFGGPSDSTGSN,0.0009046
APRITFGGPSDSTGSN F6V (APRITVGGPSDSTGSN),"DMS PSSM value, F (position 6)",peptide APRITFGGPSDSTGSN,0
RNAPRITFGGPSDSTG G10P (RNAPRITFGPPSDSTG),"DMS PSSM value, G (position 10)",peptide RNAPRITFGGPSDSTG,0
RNAPRITFGGPSDSTG T7F (RNAPRIFFGGPSDSTG),"DMS PSSM value, T (position 7)",peptide RNAPRITFGGPSDSTG,0
APRITFGGPSDSTGSN S12W (APRITFGGPSDWTGSN),"DMS PSSM value, S (position 12)",peptide APRITFGGPSDSTGSN,0.01354
APRITFGGPSDSTGSN P2Y (AYRITFGGPSDSTGSN),"DMS PSSM value, P (position 2)",peptide APRITFGGPSDSTGSN,0
RNAPRITFGGPSDSTG A3F (RNFPRITFGGPSDSTG),"DMS PSSM value, A (position 3)",peptide RNAPRITFGGPSDSTG,0
RNAPRITFGGPSDSTG A3L (RNLPRITFGGPSDSTG),"DMS PSSM value, A (position 3)",peptide RNAPRITFGGPSDSTG,0
RNAPRITFGGPSDSTG S14Q (RNAPRITFGGPSDQTG),"DMS PSSM value, S (position 14)",peptide RNAPRITFGGPSDSTG,0
APRITFGGPSDSTGSN P9L (APRITFGGLSDSTGSN),"DMS PSSM value, P (position 9)",peptide APRITFGGPSDSTGSN,0
APRITFGGPSDSTGSN G14W (APRITFGGPSDSTWSN),"DMS PSSM value, G (position 14)",peptide APRITFGGPSDSTGSN,0.2634
APRITFGGPSDSTGSN T5P (APRIPFGGPSDSTGSN),"DMS PSSM value, T (position 5)",peptide APRITFGGPSDSTGSN,0
RNAPRITFGGPSDSTG N2E (REAPRITFGGPSDSTG),"DMS PSSM value, N (position 2)",peptide RNAPRITFGGPSDSTG,0.4748
RNAPRITFGGPSDSTG F8D (RNAPRITDGGPSDSTG),"DMS PSSM value, F (position 8)",peptide RNAPRITFGGPSDSTG,0
APRITFGGPSDSTGSN A1F (FPRITFGGPSDSTGSN),"DMS PSSM value, A (position 1)",peptide APRITFGGPSDSTGSN,0.0004523
RNAPRITFGGPSDSTG N2L (RLAPRITFGGPSDSTG),"DMS PSSM value, N (position 2)",peptide RNAPRITFGGPSDSTG,0
APRITFGGPSDSTGSN G14E (APRITFGGPSDSTESN),"DMS PSSM value, G (position 14)",peptide APRITFGGPSDSTGSN,0.002668
RNAPRITFGGPSDSTG N2P (RPAPRITFGGPSDSTG),"DMS PSSM value, N (position 2)",peptide RNAPRITFGGPSDSTG,0
RNAPRITFGGPSDSTG S12D (RNAPRITFGGPDDSTG),"DMS PSSM value, S (position 12)",peptide RNAPRITFGGPSDSTG,0
APRITFGGPSDSTGSN S15I (APRITFGGPSDSTGIN),"DMS PSSM value, S (position 15)",peptide APRITFGGPSDSTGSN,0.3514
RNAPRITFGGPSDSTG G16H (RNAPRITFGGPSDSTH),"DMS PSSM value, G (position 16)",peptide RNAPRITFGGPSDSTG,0
RNAPRITFGGPSDSTG P4G (RNAGRITFGGPSDSTG),"DMS PSSM value, P (position 4)",peptide RNAPRITFGGPSDSTG,0
APRITFGGPSDSTGSN S10E (APRITFGGPEDSTGSN),"DMS PSSM value, S (position 10)",peptide APRITFGGPSDSTGSN,0.06961
APRITFGGPSDSTGSN A1P (PPRITFGGPSDSTGSN),"DMS PSSM value, A (position 1)",peptide APRITFGGPSDSTGSN,0.006009
RNAPRITFGGPSDSTG A3V (RNVPRITFGGPSDSTG),"DMS PSSM value, A (position 3)",peptide RNAPRITFGGPSDSTG,0
RNAPRITFGGPSDSTG G9M (RNAPRITFMGPSDSTG),"DMS PSSM value, G (position 9)",peptide RNAPRITFGGPSDSTG,0
APRITFGGPSDSTGSN P2L (ALRITFGGPSDSTGSN),"DMS PSSM value, P (position 2)",peptide APRITFGGPSDSTGSN,0
RNAPRITFGGPSDSTG A3R (RNRPRITFGGPSDSTG),"DMS PSSM value, A (position 3)",peptide RNAPRITFGGPSDSTG,0
APRITFGGPSDSTGSN F6T (APRITTGGPSDSTGSN),"DMS PSSM value, F (position 6)",peptide APRITFGGPSDSTGSN,0
APRITFGGPSDSTGSN S10G (APRITFGGPGDSTGSN),"DMS PSSM value, S (position 10)",peptide APRITFGGPSDSTGSN,0
RNAPRITFGGPSDSTG S12A (RNAPRITFGGPADSTG),"DMS PSSM value, S (position 12)",peptide RNAPRITFGGPSDSTG,0.3916
APRITFGGPSDSTGSN P9H (APRITFGGHSDSTGSN),"DMS PSSM value, P (position 9)",peptide APRITFGGPSDSTGSN,0
APRITFGGPSDSTGSN P9T (APRITFGGTSDSTGSN),"DMS PSSM value, P (position 9)",peptide APRITFGGPSDSTGSN,0.01557
